The values below come from patent US10711005B2, “Compound I and compound II as well as preparation methods therefor and application thereof” (SHENZHEN UNIVERSITY, priority 2015, dated 2020).

For series [1], the system named is murine melanoma cell line B16f10. In words: Anti tumor experiment of T7-EA in vivo (melanoma-bearing mice). The note with it: T7-EA 10 mg/Kg once every three days for 2 weeks; vs control group, T7 group and EA group (P<0.01), FIG. 5. The arrangement: species or system BALB/c mice. The source says:
The used materials comprise animal and cell strain BALB/c mice, female, 5-6 weeks old, provided by the Guangdong Medical Laboratory Animal Center; and murine melanoma cell line B16f10 purchased from Shanghai ATCC Cell Bank.
24 4-5 weeks old female BALB/c mice are loaded with 5×10^5 tumor cells/each one after 1 weeks of quarantine at SPF level in an animal room. The mice bearing tumors are randomly divided into 75% ethanol control group, T7 group, EA group and T7-EA group, when the diameter of the tumor reaches 5 mm. The corresponding drugs are given to each group with a dosage of T7-EA 10 mg/Kg, T7 5 mg/kg, EA 12.5 mg/kg once every three days for 2 weeks. During the treatment, the tumor growth is observed by measuring the tumor size every three days. The tumor surface area is calculated according to the following formula: S=tab (wherein a represents the long diameter, while b represents the short diameter). The 24 mice are loaded with 5×10^5 tumor cells/each one after 7 days of quarantine at SPF level in an animal room. The mice bearing tumors are randomly divided into 75% ethanol control group, T7 group, EA group and T7-EA group, when the diameter of the tumor reaches 5 mm. The corresponding drugs are given to each group once every three days for 2 weeks, and the tumor size is measured every three days.

Series [2] concerns spleen lymphocytes. The experiment in a line: ELISA detection of IFN-γ and IL-12 after stimulation of spleen lymphocytes in vitro by T7-EA. It counts as cell-based, mice. The settings on record: 24 hours, FIGS. 3A-3B. The procedure: The mice are broken the neck to death and soaked in 75% ethanol for 5 minutes, and then placed on the super-clean bench for taking the spleen out with a sterile operation. The spleen is grinded in the 35 mm culture dish containing 4-5 ml murine lymphocyte separating medium. Then obtained cell suspension is transferred to the 15 ml centrifuge tube in which 500 μl RPMI-1640 is gently added along the tube wall for enclosure. After that the centrifuge tube is centrifuged for 30 minutes at 800 G. Then the centrifuged layer containing the lymphocytes is further centrifuged at 250 G for 10 minutes in a centrifuge tube containing 10 ml culture medium. The supernatant is discarded and the cell pellet is dissipated by the culture medium and counted. The spleen leukomonocytes are deposited on the 24-well plate with a cell density of 1×10^6/ml. T7-EA with corresponding concentrations (0, 0.001, 0.01, 0.1, 1, 2, 4, 8, 16, 20, 24 μmol/L) is added into each well and incubated for 24 hours in the cell culture box of 5% CO2 and saturated humidity at 37° C. The supernatant is collected on the second day and tested according to the operation manual of the ELISA kit. The supernatants are collected after stimulating the spleen lymphocytes with T7-EA of different concentrations for 24 hours, and the ELISA test results are shown in FIGS. 3A-3B.
For orientation: An ELISA detects its analyte on a solid surface through an enzyme-linked reagent.

The subject of series [3] is spleen lymphocytes. In words: Lymphocyte proliferation experiment (CCK8). It counts as cell-based, mice. The settings on record: 24 hours; for proliferation of the lymphocytes: CCK8, FIG. 4. The procedure:
The activation and proliferation abilities of T7-EA on the lymphocytes are detected. The mice are broken the neck to death and soaked in 75% ethanol, and then placed on the super-clean bench for taking the spleen out with a sterile operation. The spleen is grinded in the 35 mm culture dish containing 4-5 ml murine lymphocyte separating medium. Then obtained cell suspension is transferred to the 15 ml centrifuge tube in which 500 μl RPMI-1640 is gently added along the tube wall for enclosure. After that the centrifuge tube is centrifuged for 30 minutes at 800 G. Then the centrifuged layer containing the lymphocytes is further centrifuged at 250 G for 10 minutes in a centrifuge tube containing 10 ml culture medium. The supernatant is discarded and the cell pellet is dissipated by the culture medium and counted. The spleen leukomonocytes are deposited on the 96-well plate with a cell density of 2×10^5/each well. T7-EA with corresponding concentrations (0, 0.001, 0.01, 0.1, 1, 2, 4, 8, 16, 20, 24 μmol/L) is added onto the 96-well plate and incubated for 24 hours in the cell culture box of 5% CO2 and saturated humidity at 37° C. The effect of the T7-EA on the proliferation of the lymphocytes is detected by CCK8 after the 24 hours incubation according to the operation manual of the CCK8 kits, and the results are shown in FIG. 4. […] When the T7-EA has a concentration of 4 μmol/L, the relative proliferation rate is about 50%.

The subject of series [4] is B16f10 melanoma cells. The experiment in a line: CTL experiment (LDH method), spleen lymphocytes of treated mice against B16f10. It counts as in vivo. The note with it: effector:target 50:1, 4 hours, after two weeks of administration; vs control, T7 and EA groups (P<0.05), FIG. 6. As for the experimental part:
The activity of cytotoxic T lymphocyte (CTL) is determined by the method of Lactic dehydrogenase (LDH) with CytoTox96Promega kits. The mice in the experimental group are broken the neck to death. The spleen lymphocytes are taken as the effector cells while the B16f10 melanoma cells are used as the target cells. The effector cells and the target cells are mixed up with a ratio of 50:1 and cultured for 4 hours. The specific operation steps can be implemented according to the operation manual, while the kill rate can calculated as follows: the killing rate (%)=(OD value of the experimental group−pontaneous OD value of the effector cells−pontaneous OD value of the target cells)/(Maximum OD value of the target cells−pontaneous OD value of the target cells)×100%. The mice in the experimental group are broken the neck to death after two weeks of administration. The spleen lymphocytes are taken as the effector cells while the B16f10 melanoma cells are used as the target cells. The effector cells and the target cells are spread onto 96-well U-shape plate according to a ratio of 50:1 and cultured together for 4 hours.

Series [5] relates to protein of mammary cancer 4T1 cells. The experiment in a line: Whole-cell antibody detection (serum IgG ELISA). The format is in vivo, mice. The settings on record: blood collected sixth day after each of 4 immunotherapies, FIG. 12. The procedure:
The protein of mammary cancer 4T1 cells is extracted and the concentration of which is also measured in accordance with the operation manual of the BCA protein quantitative kits. The extracted protein is used as the envelope antigen. The venous blood of mice is collected sixth days after each immunotherapy, and its supernatant is collected for 4 times. The serum antibody is measured in accordance with the operation manual of the ELISA kit.

Series [6] relates to spleen lymphocytes. The experiment in a line: ELISA detection of cytokines IFN-γ and IL-12 generated by spleen lymphocytes after stimulation of T7-EA-ROR1. The format is cell-based, murine. The note with it: final T7-EA concentration 4 μmol/L, T7-EA:ROR1 molar ratio 1:1, FIGS. 10A-10B. The procedure:
The mice are broken the neck to death and soaked in 75% ethanol, and then placed on the super-clean bench for taking the spleen out with a sterile operation. The spleen is grinded in the 35 mm culture dish containing 4-5 ml Mouse1×lymphocyte separating medium. Then separating medium suspended with spleen cells is transferred to the 15 ml centrifuge tube and enclosed with 500 μl RPMI-1640, After that the centrifuge tube is centrifuged at room temperature for 30 minutes at 800 G. Then the middle buffy coat is placed into a centrifuge tube containing 10 ml culture medium for being overthrown and washed. After that, the centrifuge tube is further centrifuged at 250 G for 10 minutes at room temperature. The supernatant is discarded and the cell pellet is dissipated by the culture medium and counted. The spleen leukomonocytes are deposited on the 24-well plate with a final cell density of 1×10^6/ml. T7-EA with corresponding concentrations (0, 0.01, 0.1, 0.5, 1, 2, 4, 8, 16, 20, 24 μmol/L) is added and incubated for 24 hours in the cell culture box. The supernatant is collected on the second day and tested according to the operation manual of the ELISA kit. […] When the T7-EA has a concentration ≤4 μmol/L, better effects can be obtained. Accordingly, 4 μmol/L is the effective concentration of the T7-EA. […]

Series [7] relates to spleen lymphocytes. The experiment in a line: ELISA detection of cytokines IFN-γ and IL-12 generated by spleen lymphocytes after stimulation of T7-EA. The note with it: 24 hours. The format is cell-based, mice. The procedure:
The mice are broken the neck to death and soaked in 75% ethanol, and then placed on the super-clean bench for taking the spleen out with a sterile operation. The spleen is grinded in the 35 mm culture dish containing 4-5 ml Mouse1×lymphocyte separating medium. Then separating medium suspended with spleen cells is transferred to the 15 ml centrifuge tube and enclosed with 500 μl RPMI-1640, After that the centrifuge tube is centrifuged at room temperature for 30 minutes at 800 G. Then the middle buffy coat is placed into a centrifuge tube containing 10 ml culture medium for being overthrown and washed. After that, the centrifuge tube is further centrifuged at 250 G for 10 minutes at room temperature. The supernatant is discarded and the cell pellet is dissipated by the culture medium and counted. The spleen leukomonocytes are deposited on the 24-well plate with a final cell density of 1×10^6/ml. T7-EA with corresponding concentrations (0, 0.01, 0.1, 0.5, 1, 2, 4, 8, 16, 20, 24 μmol/L) is added and incubated for 24 hours in the cell culture box. The supernatant is collected on the second day and tested according to the operation manual of the ELISA kit. […] When the T7-EA has a concentration ≤4 μmol/L, better effects can be obtained. Accordingly, 4 μmol/L is the effective concentration of the T7-EA.

Series [8] relates to dendritic cells derived from bone marrow cells. The note with it: in vitro; cited from earlier work.
Series [9] has as its system lymphocyte. The settings on record: cited from earlier work.
The mark [10] stands for this setting: higher concentration (>4 μmol/L).
[11] abbreviates: lower concentration (≤4 μmol/L).

For the compound `C=C(CC)C(=O)c1ccc(OCC(=O)NCc2ccc(Cn3c(O)nc4c(N)nc(OCCOC)nc43)cc2)c(Cl)c1Cl` [T7-EA], the “growth of the tumor (tumor surface area)” value in series [1] is reported as “significantly inhibited the growth of the tumor”. The “ability for activating lymphocytes (generation of IFN-γ and IL-12)” value was “decreased ability for activating lymphocytes” in [2] (setting [10]) and “stronger ability for activating lymphocytes” in [2] (setting [11]). The relative proliferation rate result in series [3] (concentration of 4 μmol/L) was “about 50%”. Also, in [3] (higher concentration (>4 μmol/L), CCK8), the “lethal effect on the lymphocytes” value was “no lethal effect on the lymphocytes”. Further, the “proliferation of the lymphocytes” value in [3] (setting [10]) is given as “no effect on the proliferation of the lymphocytes”; in [3] (setting [11]), “can promote the proliferation of the lymphocytes”. The “immune killing effect (CTL killing rate)” value in [4] was “stronger immune killing effect on melanoma”. Also, the “level of IgG antibody in the mice sera” value in series [5] is given as “increases gradually with the increase of immunization times”. For the same compound, the “generation of cytokines IFN-γ and IL-12 by spleen lymphocytes” value in [6] was “can induce the spleen lymphocytes to generate cytokines IFN-γ and IL-12”. The “generation of cytokines IFN-γ and IL-12 by lymphocytes” value in series [7] (0-24 μmol/L, FIGS. 8A-8B) is “can activate the lymphocytes and induce the lymphocytes to generate cytokines IFN-γ and IL-12”. In addition, the “effective concentration of the T7-EA” value in [7] (IFN-γ and IL-12 induction) stood at 4 µmol/L.

As for `COCCOc1nc(N)c2nc(O)n(Cc3ccc(CN)cc3)c2n1` [T7], the “production of inflammatory mediators TNF-a and IL-12” value in series [8] is “inflammatory mediators, such as TNF-a and IL-12 can be produced rapidly”. The “production of inflammatory mediators IFN-γ and IL-12” value in series [9] was “inflammatory mediators, such as IFN-γ and IL-12 can also be produced rapidly”.
